Reference: patent US20070128217A1 (priority 2003, published 2007)

Key:
[1] = tested on: rabbit serum obtained by immunizing a rabbit with the SARS-CoV strain Frankfurt 1; assay type: binding; design: Binding of a rabbit serum to linear peptides / Binding of a rabbit serum to looped peptides / Rabbit serum linear peptides / Rabbit serum looped peptides / Binding of a rabbit serum to linear peptides of protein N of SARS-CoV Urbani (Rabbit serum linear peptides) / Binding of a rabbit serum to looped/cyclic peptides of protein N of SARS-CoV Urbani (Rabbit serum looped peptides): unit not given here
[2] = tested on: control sera (pooled serum of ten healthy LUMC hospital workers; commercial negative donor pooled serum from the Dutch bloodbank); assay type: binding, human; design: Binding of Control serum LUMC to linear peptides / Binding of Control serum Blood-bank to linear peptides / Binding of Control serum LUMC to looped peptides / Binding of Control Serum Blood-Bank to Looped peptides / Binding of Control serum LUMC to linear peptides of the protein M of SARS-CoV Urbani / Binding of Control serum Blood-bank to linear peptides of the protein M of SARS-CoV Urbani / Binding of Control serum LUMC to looped peptides of the protein M of SARS-CoV Urbani / Binding of Control Serum Blood-Bank to Looped peptides of the protein M of SARS-CoV Urbani: unit not given here
[3] = tested on: antibodies in sera from SARS patients (sera 1a, 1b, 2, 6, 37, 62, London, SARS-yellow, SARS-green); assay type: binding, human; design: Binding of serum 6 to linear peptides of protein X1 of SARS-CoV Urbani / Binding of serum 37 to linear peptides of protein X1 of SARS-CoV Urbani / Binding of serum 6 to looped/cyclic peptide (PEPSCAN-ELISA) / Binding of serum 37 to looped/cyclic peptide (PEPSCAN-ELISA) / Binding of serum 37 to looped/cyclic peptides of protein X1 of SARS-CoV Urbani / Binding of serum 6 to linear peptides of protein X2 / Binding of serum 37 to linear peptides of protein X2 / Binding of serum 37 to looped/cyclic peptides of protein X2 of SARS-CoV Urbani / Binding of serum 6 to linear peptides of protein M of SARS-CoV Urbani / Binding of serum 37 to linear peptides of protein M of SARS-CoV Urbani / Binding of serum 6 to looped/cyclic peptides of protein M of SARS-CoV Urbani / Binding of serum 37 to looped/cyclic peptides of protein M of SARS-CoV Urbani / Binding of serum 6 to linear peptides of protein X3 of SARS-CoV Urbani / Binding of serum 37 to linear peptides of protein X3 of SARS-CoV Urbani / Binding of serum 37 to looped/cyclic peptides of protein X3 of SARS-CoV Urbani / Binding of serum 6 to linear peptides of protein X4 of SARS-CoV Urbani / Binding of serum 37 to linear peptides of protein X4 of SARS-CoV Urbani / Binding of serum 37 to looped/cyclic peptides of protein X4 of SARS-CoV Urbani / Binding of serum 6 to linear peptides of protein X5 of SARS-CoV Urbani / Binding of serum 37 to linear peptides of protein X5 of SARS-CoV Urbani / Binding of serum 37 to looped/cyclic peptides of protein X5 of SARS-CoV Urbani / Binding of serum 6 to linear peptides of protein N of SARS-CoV Urbani / Binding of serum 37 to linear peptides of protein N of SARS-CoV Urbani / Binding of serum 6 to linear peptide (PEPSCAN-ELISA) / Binding of serum 1a to looped/cyclic peptides of protein N of SARS-CoV Urbani / Binding of serum 1b to looped/cyclic peptides of protein N of SARS-CoV Urbani / Binding of serum 2 to looped/cyclic peptides of protein N of SARS-CoV Urbani / Binding of serum 6 to looped/cyclic peptides of protein N of SARS-CoV Urbani / Binding of serum 37 to looped/cyclic peptides of protein N of SARS-CoV Urbani / Binding of serum 62 to looped/cyclic peptides of protein N of SARS-CoV Urbani / Binding of serum London to looped/cyclic peptides of protein N of SARS-CoV Urbani / Binding of serum SARS-green to looped/cyclic peptides of protein N of SARS-CoV Urbani: unit not given here
[4] = tested on: recombinant human anti-SARS-CoV antibody 03-018; assay type: binding; design: Binding of antibody 03-018 to linear peptides of the N protein of SARS-CoV Urbani / Binding of antibody 03-018 to looped/cyclic peptides of the N protein of SARS-CoV Urbani: unit not given here

Sequence | Binding of a rabbit serum to linear peptides of protein N of SARS-CoV Urbani (Rabbit serum linear peptides) [1] | Binding of a rabbit serum to looped/cyclic peptides of protein N of SARS-CoV Urbani (Rabbit serum looped peptides) [1] | Binding of Control Serum Blood-Bank to Looped peptides [2] | Binding of Control serum Blood-bank to linear peptides [2] | Binding of Control serum LUMC to linear peptides [2] | Binding of Control serum LUMC to looped peptides [2] | Binding of serum 1a to linear peptide (PEPSCAN-ELISA) [3] | Binding of serum 1a to looped/cyclic peptides of protein N of SARS-CoV Urbani [3] | Binding of serum 1b to linear peptide (PEPSCAN-ELISA) [3] | Binding of serum 1b to looped/cyclic peptides of protein N of SARS-CoV Urbani [3] | Binding of serum 2 to linear peptide (PEPSCAN-ELISA) [3] | Binding of serum 2 to looped/cyclic peptides of protein N of SARS-CoV Urbani [3] | Binding of serum 6 to looped/cyclic peptides of protein N of SARS-CoV Urbani [3] | Binding of serum 37 to looped/cyclic peptides of protein N of SARS-CoV Urbani [3] | Binding of serum 62 to looped/cyclic peptides of protein N of SARS-CoV Urbani [3] | Binding of serum London to looped/cyclic peptides of protein N of SARS-CoV Urbani [3] | Binding of serum SARS-green to looped/cyclic peptides of protein N of SARS-CoV Urbani [3] | Binding of serum SARS-yellow to looped/cyclic peptides of protein N of SARS-CoV Urbani [3] | Binding of antibody 03-018 to linear peptides of the N protein of SARS-CoV Urbani [4] | Binding of antibody 03-018 to looped/cyclic peptides of the N protein of SARS-CoV Urbani [4] | further results
LLDRLNQLESKVSGK | 0.6 | 0.1 | 0.3 | 0.7 | 0.6 | 0.2 | 0.2 | 0.2 | 0.1 | 0.1 | 0.3 | 0.2 | 0.1 | 0.4 | 0.4 | 0.3 | 0.0 | 0.1 | 0.1 | 0.2 | Binding of serum 6 to linear peptide (PEPSCAN-ELISA) [3]: 0.2; Binding of serum 37 to linear peptide (PEPSCAN-ELISA) [3]: 0.7; Binding of serum 62 to linear peptide (PEPSCAN-ELISA) [3]: 0.6; Binding of serum London to linear peptide (PEPSCAN-ELISA) [3]: 0.5; Binding of serum SARS-green to linear peptide (PEPSCAN-ELISA) [3]: 0.4; Binding of serum SARS-yellow to linear peptide (PEPSCAN-ELISA) [3]: 0.7
LLLDRLNQLESKVSG | 0.2 | 0.2 | 0.5 | 0.8 | 0.9 | 0.5 | 0.3 | 0.3 | 0.2 | 0.1 | 0.4 | 0.4 | 0.1 | 0.5 | 0.3 | 0.3 | 0.6 | 0.2 | 0.1 | 0.2 | Binding of serum 6 to linear peptide (PEPSCAN-ELISA) [3]: 0.2; Binding of serum 37 to linear peptide (PEPSCAN-ELISA) [3]: 0.8; Binding of serum 62 to linear peptide (PEPSCAN-ELISA) [3]: 0.6; Binding of serum London to linear peptide (PEPSCAN-ELISA) [3]: 0.9; Binding of serum SARS-green to linear peptide (PEPSCAN-ELISA) [3]: 1.1; Binding of serum SARS-yellow to linear peptide (PEPSCAN-ELISA) [3]: 0.7
LLPAADMDDFSRQLQ | 0.1 | 0.2 | – | – | – | – | – | 0.3 | – | 0.1 | – | 0.4 | 0.1 | 0.5 | 0.2 | 0.3 | 0.2 | 0.3 | 0.1 | 0.2 | Control Serum Blood-Bank Looped peptides [2]: 0.4; Control serum Blood-bank linear peptides [2]: 0.7; Control serum LUMC linear peptides [2]: 0.6; Control serum LUMC looped peptides [2]: 0.4; Binding of serum 1a to linear peptides of protein N of SARS-CoV Urbani [3]: 0.3; Binding of serum 1b to linear peptides of protein N of SARS-CoV Urbani [3]: 0.2; Binding of serum 2 to linear peptides of protein N of SARS-CoV Urbani [3]: 0.3; Binding of serum 6 to linear peptides of protein N of SARS-CoV Urbani [3]: 0.3; Binding of serum 37 to linear peptides of protein N of SARS-CoV Urbani [3]: 0.8; Binding of serum 62 to linear peptides of protein N of SARS-CoV Urbani [3]: 0.6; Binding of serum London to linear peptides of protein N of SARS-CoV Urbani [3]: 0.6; Binding of serum SARS-green to linear peptides of protein N of SARS-CoV Urbani [3]: 0.4; Binding of serum SARS-yellow to linear peptides of protein N of SARS-CoV Urbani [3]: 0.6
LNKHIDAYKTFPPTE | 0.1 | 0.4 | – | – | – | – | – | 0.2 | – | 0.1 | – | 0.2 | 0.1 | 0.4 | 0.3 | 0.3 | 0.2 | 0.1 | 0.1 | 0.2 | Control Serum Blood-Bank Looped peptides [2]: 0.4; Control serum Blood-bank linear peptides [2]: 0.5; Control serum LUMC linear peptides [2]: 0.5; Control serum LUMC looped peptides [2]: 0.4; Binding of serum 1a to linear peptides of protein N of SARS-CoV Urbani [3]: 0.2; Binding of serum 1b to linear peptides of protein N of SARS-CoV Urbani [3]: 0.1; Binding of serum 2 to linear peptides of protein N of SARS-CoV Urbani [3]: 0.1; Binding of serum 6 to linear peptides of protein N of SARS-CoV Urbani [3]: 0.1; Binding of serum 37 to linear peptides of protein N of SARS-CoV Urbani [3]: 0.7; Binding of serum 62 to linear peptides of protein N of SARS-CoV Urbani [3]: 0.5; Binding of serum London to linear peptides of protein N of SARS-CoV Urbani [3]: 0.4; Binding of serum SARS-green to linear peptides of protein N of SARS-CoV Urbani [3]: 0.4; Binding of serum SARS-yellow to linear peptides of protein N of SARS-CoV Urbani [3]: 0.5
